From ChEMBL document CHEMBL3860097, “Synthesis and biological evaluation of C-ring truncated deguelin derivatives as heat shock protein 90 (HSP90) inhibitors” (2016)
Activity calls are given as the source filed them. No cut-off for these calls is given here.

What was measured:
Homo sapiens [1] = species: Homo sapiens; test: Antiangiogenic activity in HRMEC assessed as inhibition of VEGF-induced cell proliferation under hypoxic condition by measuring [3H]-thymidine incorporation at 100 nM preincubated for 24 hrs followed by [3H]-thymidine addition measured after 6 hrs by liquid scintillation counter; assay type: functional
Homo sapiens [2] = species: Homo sapiens; test: Antiangiogenic activity in HRMEC assessed as inhibition of VEGF-induced cell migration under hypoxic condition at 100 nM after 4 hrs by hematoxylin and eosin staining-based phase-contrast microscopy; assay type: functional
[3] = target: T1, Heat shock protein HSP90 (Homo sapiens) (UniProt P07900+P08238); test: Inhibition of HSP90 in human H1299 cells assessed as suppression of HIF-1alpha at 100 nM preincubated for 72 hrs followed by incubation under hypoxic condition for 12 hrs by Western blot method relative to control; assay type: cell-based
[4] = Cytotoxicity against human H1299 cells assessed as decrease in cell viability at 10 uM by MTT assay relative to control; assay type: functional, NCI-H1299
[5] = target: T1, Heat shock protein HSP90 (Homo sapiens); test: Inhibition of HSP90 in human H1299 cells assessed as suppression of HIF-1alpha at 10 nM preincubated for 72 hrs followed by incubation under hypoxic condition for 12 hrs by Western blot method relative to control; assay type: cell-based
NCI-H1299 = test: Cytotoxicity against human H1299 cells assessed as decrease in cell viability by MTT assay; assay type: functional, cell-based
[6] = target: T1, Heat shock protein HSP90 (Homo sapiens); test: Inhibition of HSP90 in human H1299 cells assessed as suppression of HIF-1alpha preincubated for 72 hrs followed by incubation under hypoxic condition for 12 hrs by Western blot method; assay type: cell-based

Row | SMILES | inhibition [3] | also measured
1 | CC(C)c1cc(-c2n[nH]c(=O)n2-c2ccc3c(ccn3C)c2)c(O)cc1O | – | inhibition (Homo sapiens [1]): Active; inhibition (Homo sapiens [2]): Active
2 | COc1cc2nccc(C(=O)c3ccc4c(ccn4C)c3)c2cc1OC | 86% | –
3 | COc1cc2nccc(C(O)c3ccc4c(c3OC)C=CC(C)(C)O4)c2cc1OC (centres undefined) | 71.5% | –
4 | COc1cc2nccc(C(OC(=O)C3CC3)c3ccc4ncccc4c3)c2cc1OC (centres undefined) | 115% | –
5 | COc1cc2cc(C(=O)c3ccc4c(c3OC)C=CC(C)(C)O4)oc2cc1OC | 54.1% | –
6 | COc1cc2cc(/C(=N/O)c3ccc4c(c3OC)C=CC(C)(C)O4)oc2cc1OC | 70.6% | –
7 | COc1cc2ncnc(C(OC(=O)C3CC3)c3ccc4c(c3OC)C=CC(C)(C)O4)c2cc1OC (centres undefined) | 71.9% | –
8 | COc1cc2nccc(C(OC(=O)C3CC3)c3ccc4c(ccn4C)c3)c2cc1OC (centres undefined) | 85% | –
9 | COc1cc2nccc(C(SC(C)=O)c3ccc4c(c3OC)C=CC(C)(C)O4)c2cc1OC (centres undefined) | 59.3% | Activity [4]: <50%; inhibition [5]: 74%; Activity (NCI-H1299): Dose-dependent effect
10 | COc1cc2occ(C(OC(C)=O)c3ccc4c(c3OC)C=CC(C)(C)O4)c2cc1OC (centres undefined) | 81% | –
11 | CCCC(=O)OC(c1ccc2c(c1OC)C=CC(C)(C)O2)c1ccnc2cc(OC)c(OC)cc12 (centres undefined) | 90% | –
12 | COc1cc2ccc(C(=O)c3ccc4c(c3OC)C=CC(C)(C)O4)nc2cc1OC | 76% | –
13 | COc1cc2cc(C(=O)c3ccc4ncccc4c3)oc2cc1OC | 40.6% | –
14 | COc1cc2cc(C(O)c3ccc4ncccc4c3)oc2cc1OC (centres undefined) | 102% | –
15 | COc1cc2cc(C(OC(C)=O)c3ccc4ncccc4c3)oc2cc1OC (centres undefined) | 56% | inhibition [5]: 88%
16 | COc1cc2cc(C(OC(=O)C3CC3)c3ccc4ncccc4c3)oc2cc1OC (centres undefined) | 115% | –
17 | COc1cc2nccc(C(OC(C)=O)c3ccc4c(c3OC)C=CC(C)(C)O4)c2cc1OC (centres undefined) | 62.2% | inhibition [5]: 95.4%
18 | CO/N=C(/c1cc2cc(OC)c(OC)cc2o1)c1ccc2c(c1OC)C=CC(C)(C)O2 | 66.5% | inhibition [5]: 76.9%
19 | COc1cc2cc(/C(=N\O)c3ccc4c(c3OC)C=CC(C)(C)O4)oc2cc1OC | 117% | –
20 | COc1cc2nccc(C(OC(C)=O)c3ccc4c(ccn4C)c3)c2cc1OC (centres undefined) | 97.2% | –
21 | CO/N=C(/c1ccc2c(c1OC)C=CC(C)(C)O2)c1ccnc2cc(OC)c(OC)cc12 | 54.2% | –

Row | SMILES | inhibition [3] | also measured
22 | COc1cc2nccc(C(OC(=O)C3CC3)c3ccc4c(c3OC)C=CC(C)(C)O4)c2cc1OC (centres undefined) | 53.9% | inhibition [6]: Dose-dependent effect; Activity [4]: <50%; inhibition (Homo sapiens [1]): Active; inhibition [5]: 63.3%; inhibition (Homo sapiens [2]): Active; Activity (NCI-H1299): Dose-dependent effect
23 | COc1cc2ccc(C(OC(C)=O)c3ccc4c(c3OC)C=CC(C)(C)O4)nc2cc1OC (centres undefined) | 73% | –
24 | COc1ccc(CC(=O)c2ccc3c(c2OC)C=CC(C)(C)O3)cc1OC | 85.3% | –
25 | COc1cc2nccc(C(NC(=O)C3CC3)c3ccc4c(c3OC)C=CC(C)(C)O4)c2cc1OC (centres undefined) | 85.5% | –
26 | COc1cc2nccc(C(OC(=O)C3CC3)c3ccc4ncccc4c3OC)c2cc1OC (centres undefined) | 80.5% | –
27 | CO/N=C(\c1cc2cc(OC)c(OC)cc2o1)c1ccc2c(c1OC)C=CC(C)(C)O2 | 65.6% | –
28 | COc1cc2c(cc1OC)[C@@H]1C(=O)c3ccc4c(c3O[C@@H]1CO2)C=CC(C)(C)O4 | 64% | inhibition (Homo sapiens [1]): Active; inhibition [5]: 94%; inhibition (Homo sapiens [2]): Active
29 | COc1cc2nccc(C(NC(C)=O)c3ccc4c(c3OC)C=CC(C)(C)O4)c2cc1OC (centres undefined) | 72.9% | –
30 | COc1cc2nccc(C(OC(C)=O)c3ccc4ncccc4c3OC)c2cc1OC (centres undefined) | 67.4% | –
31 | COc1cc2nccc(C(=O)c3ccc4c(c3OC)C=CC(C)(C)O4)c2cc1OC | 70.5% | –
32 | COc1cc2occ(C(=O)c3ccc4c(c3OC)C=CC(C)(C)O4)c2cc1OC | 92.4% | inhibition [5]: 105%
33 | COc1cc2cc(C(OC(C)=O)c3ccc4c(c3OC)C=CC(C)(C)O4)oc2cc1OC (centres undefined) | 72.2% | –
34 | COc1cc2ccc(C(OC(=O)C3CC3)c3ccc4c(c3OC)C=CC(C)(C)O4)nc2cc1OC (centres undefined) | 71% | –
35 | COc1cc2nccc(C(N)c3ccc4c(c3OC)C=CC(C)(C)O4)c2cc1OC (centres undefined) | 68.9% | –
36 | CCC(=O)OC(c1ccc2c(c1OC)C=CC(C)(C)O2)c1ccnc2cc(OC)c(OC)cc12 (centres undefined) | 96.4% | –
37 | COc1cc2ncnc(C(OC(C)=O)c3ccc4c(c3OC)C=CC(C)(C)O4)c2cc1OC (centres undefined) | 88.6% | –
38 | COc1cc2nccc(C(OC(C)=O)c3ccc4ncccc4c3)c2cc1OC (centres undefined) | 82.7% | –
39 | COc1cc2nccc(C(OC(N)=O)c3ccc4c(c3OC)C=CC(C)(C)O4)c2cc1OC (centres undefined) | 81.2% | –
40 | COc1cc2ccc(C(O)c3ccc4c(c3OC)C=CC(C)(C)O4)nc2cc1OC (centres undefined) | 86% | –
41 | COc1cc2nccc(/C(=N\O)c3ccc4c(c3OC)C=CC(C)(C)O4)c2cc1OC | 64% | –
42 | COc1cc2nccc(C(O)c3ccc4c(ccn4C)c3)c2cc1OC (centres undefined) | 102% | –
